ChEMBL document CHEMBL1909046, “DrugMatrix in vitro pharmacology data”

Experiments:
[1] = DRUGMATRIX: Atrial Natriuretic Factor (ANF) radioligand binding (ligand: [125I] ANF (rat)); format: cell membranes, Cavia porcellus, Dunkin-Hartley, Adrenal gland, Membrane; settings: Not Active = under 50% inhibition at 10 µM
[2] = target: T1, Calcitonin receptor (Homo sapiens, UniProt P30988); format: cell membranes, Membrane; settings: t47d; note: in other assays of this panel Not Active means under 50% inhibition at 10 µM
T1 sequence (P30988 whole entry): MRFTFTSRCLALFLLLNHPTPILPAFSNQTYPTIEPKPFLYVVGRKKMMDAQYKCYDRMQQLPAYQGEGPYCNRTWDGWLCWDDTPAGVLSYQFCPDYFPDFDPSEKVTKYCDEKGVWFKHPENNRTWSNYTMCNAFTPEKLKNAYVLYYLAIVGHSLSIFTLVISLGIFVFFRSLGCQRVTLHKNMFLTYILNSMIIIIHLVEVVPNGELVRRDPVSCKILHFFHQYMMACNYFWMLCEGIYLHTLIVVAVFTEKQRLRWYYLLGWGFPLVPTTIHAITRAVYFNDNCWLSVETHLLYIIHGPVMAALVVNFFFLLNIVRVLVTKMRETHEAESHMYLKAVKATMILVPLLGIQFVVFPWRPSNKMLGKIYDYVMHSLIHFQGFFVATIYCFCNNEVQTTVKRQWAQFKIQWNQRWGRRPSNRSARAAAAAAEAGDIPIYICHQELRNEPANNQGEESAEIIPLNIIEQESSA

[3] = DRUGMATRIX: Calcium Channel Type L, Dihydropyridine radioligand binding (ligand: [3H] Nitrendipine); format: cell membranes, Rattus norvegicus, Wistar, Cerebral cortex, Membrane; settings: Not Active = under 50% inhibition at 10 µM
[4] = target: T2, C-X-C chemokine receptor type 2 (Homo sapiens, UniProt P25025); format: cell membranes, Membrane; settings: cho-k1; note: in other assays of this panel Not Active means under 50% inhibition at 10 µM
T2 sequence (P25025 whole entry): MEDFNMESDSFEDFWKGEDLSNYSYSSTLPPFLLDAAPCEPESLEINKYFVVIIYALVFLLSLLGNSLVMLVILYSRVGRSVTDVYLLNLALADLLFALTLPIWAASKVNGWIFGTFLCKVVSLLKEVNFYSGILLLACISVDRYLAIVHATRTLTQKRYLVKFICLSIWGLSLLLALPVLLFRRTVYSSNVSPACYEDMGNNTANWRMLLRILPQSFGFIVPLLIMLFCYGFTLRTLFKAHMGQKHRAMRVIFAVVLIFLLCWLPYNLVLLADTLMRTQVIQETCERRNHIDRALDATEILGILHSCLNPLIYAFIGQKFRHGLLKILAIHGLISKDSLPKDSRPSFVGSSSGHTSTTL

[5] = target: Glycine receptor (Rattus norvegicus, UniProt P22771+P24524+P07727+P20781); format: cell membranes, Wistar, Spinal cord, Membrane; note: in other assays of this panel Not Active means under 50% inhibition at 10 µM
[6] = target: Melanocortin receptor 3 (Homo sapiens, UniProt P41968); format: cell membranes, Membrane; settings: hek293; note: in other assays of this panel Not Active means under 50% inhibition at 10 µM
[7] = target: T3, Nitric oxide synthase, inducible (Mus musculus, UniProt P29477); set-up: species or system Escherichia coli
T3 sequence (P29477 whole entry): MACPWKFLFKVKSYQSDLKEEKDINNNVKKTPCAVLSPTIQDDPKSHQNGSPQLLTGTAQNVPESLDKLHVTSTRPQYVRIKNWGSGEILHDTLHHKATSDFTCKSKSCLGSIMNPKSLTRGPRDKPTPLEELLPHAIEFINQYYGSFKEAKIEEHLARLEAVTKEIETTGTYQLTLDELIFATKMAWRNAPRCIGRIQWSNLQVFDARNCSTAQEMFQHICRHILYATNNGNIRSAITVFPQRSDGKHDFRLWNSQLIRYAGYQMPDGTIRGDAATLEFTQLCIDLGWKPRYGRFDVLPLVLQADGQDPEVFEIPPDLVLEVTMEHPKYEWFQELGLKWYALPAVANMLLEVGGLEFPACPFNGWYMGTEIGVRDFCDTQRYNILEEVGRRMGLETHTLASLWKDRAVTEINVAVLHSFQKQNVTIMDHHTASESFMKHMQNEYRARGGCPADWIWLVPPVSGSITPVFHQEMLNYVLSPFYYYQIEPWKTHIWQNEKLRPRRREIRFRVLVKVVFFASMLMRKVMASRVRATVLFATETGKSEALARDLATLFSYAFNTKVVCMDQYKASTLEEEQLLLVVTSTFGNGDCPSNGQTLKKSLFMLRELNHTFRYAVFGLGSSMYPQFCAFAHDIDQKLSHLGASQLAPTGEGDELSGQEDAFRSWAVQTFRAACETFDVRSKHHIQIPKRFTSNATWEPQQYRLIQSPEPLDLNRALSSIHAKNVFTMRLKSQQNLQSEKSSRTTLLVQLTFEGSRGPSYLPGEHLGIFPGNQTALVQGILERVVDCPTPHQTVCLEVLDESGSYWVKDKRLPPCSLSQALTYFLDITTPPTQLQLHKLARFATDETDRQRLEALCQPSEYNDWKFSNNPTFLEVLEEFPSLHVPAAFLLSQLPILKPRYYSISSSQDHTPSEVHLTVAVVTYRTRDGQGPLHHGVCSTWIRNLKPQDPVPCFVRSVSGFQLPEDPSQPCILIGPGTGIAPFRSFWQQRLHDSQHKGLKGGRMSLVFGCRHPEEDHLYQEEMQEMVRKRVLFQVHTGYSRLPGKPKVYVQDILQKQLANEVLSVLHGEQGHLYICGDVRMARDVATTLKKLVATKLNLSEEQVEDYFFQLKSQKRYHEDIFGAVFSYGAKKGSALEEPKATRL

[8] = target: Platelet-activating factor receptor (Homo sapiens, UniProt P25105); format: tissue-based; note: in other assays of this panel Not Active means under 50% inhibition at 10 µM
Chain of Platelet-activating factor receptor (P25105 whole entry): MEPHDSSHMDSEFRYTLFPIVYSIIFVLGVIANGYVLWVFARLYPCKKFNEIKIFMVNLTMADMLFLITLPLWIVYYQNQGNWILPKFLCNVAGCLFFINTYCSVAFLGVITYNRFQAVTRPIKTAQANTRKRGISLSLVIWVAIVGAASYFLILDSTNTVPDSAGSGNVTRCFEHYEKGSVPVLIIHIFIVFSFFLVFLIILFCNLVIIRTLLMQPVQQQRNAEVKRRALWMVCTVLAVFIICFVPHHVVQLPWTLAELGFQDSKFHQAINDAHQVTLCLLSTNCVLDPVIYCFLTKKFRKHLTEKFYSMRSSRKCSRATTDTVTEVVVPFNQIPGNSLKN

Chain of Melanocortin receptor 3 (P41968 whole entry): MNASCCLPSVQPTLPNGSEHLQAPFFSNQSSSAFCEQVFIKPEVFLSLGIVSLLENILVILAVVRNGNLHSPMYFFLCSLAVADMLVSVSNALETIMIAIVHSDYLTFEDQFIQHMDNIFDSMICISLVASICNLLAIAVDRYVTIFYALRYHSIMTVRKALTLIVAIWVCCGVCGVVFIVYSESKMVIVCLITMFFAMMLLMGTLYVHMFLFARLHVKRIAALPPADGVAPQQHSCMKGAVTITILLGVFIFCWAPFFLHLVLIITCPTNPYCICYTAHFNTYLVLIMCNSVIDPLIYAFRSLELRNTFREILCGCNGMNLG

OC(CCN1CCCCC1)(c1ccccc1)C1CCCCC1 (stereo unspecified) [TRIHEXYPHENIDYL]
Not Active: IC50 [1] | Ki [1] | IC50 [2] | IC50 [3] | Ki [3] | IC50 [4] | IC50 [5] | IC50 [6] | IC50 [7] | IC50 [8]

Cc1cc2cc3c(C)cc(=O)oc3c(C)c2o1 [TRIOXSALEN]
Not Active: IC50 [1] | Ki [1] | IC50 [2] | IC50 [3] | Ki [3] | IC50 [4] | IC50 [5] | IC50 [6] | IC50 [7] | IC50 [8]

CCCC(CCC)C(=O)O [VALPROIC ACID]
Not Active: IC50 [1] | Ki [1] | IC50 [2] | IC50 [3] | Ki [3] | IC50 [4] | IC50 [5] | IC50 [6] | IC50 [7] | IC50 [8]

CCC1=C[C@@H]2CN(C1)Cc1c([nH]c3ccccc13)[C@@](C(=O)OC)(c1cc3c(cc1OC)N(C)[C@H]1[C@@](O)(C(=O)OC)[C@H](OC(C)=O)[C@]4(CC)C=CCN5CC[C@]31[C@@H]54)C2 [VINORELBINE]
Not Active: IC50 [1] | Ki [1] | IC50 [2] | IC50 [3] | Ki [3] | IC50 [4] | IC50 [5] | IC50 [6] | IC50 [7] | IC50 [8]

CADMIUM DICHLORIDE
Not Active: IC50 [1] | Ki [1] | IC50 [2] | Ki [2] | IC50 [3] | Ki [3] | IC50 [4] | Ki [4] | IC50 [5] | Ki [5] | IC50 [6] | Ki [6] | IC50 [7] | Ki [7] | IC50 [8] | Ki [8]
